From US20120157451A1, “RAF INHIBITOR COMPOUNDS AND METHODS OF USE THEREOF” (GENENTECH, INC, priority 2009, published 2012)

What was measured:
[1] = molecular target: T1, V600E full-length B-Raf (Homo sapiens, UniProt P15056, V600E); assay: B-Raf IC50 assay (incorporation of radiolabeled phosphate from [γ-33P]ATP into FSBA-modified wild-type MEK); type: biochemical
T1 construct: made in house; host or cells: Sf9 insect cells (baculovirus)
Excerpt: Determining the activity of Raf in the sample is possible by a number of direct and indirect detection methods (US 2004/0082014). Activity of human recombinant B-Raf protein may be assessed in vitro by assay of the incorporation of radio labeled phosphate to recombinant MAP kinase (MEK), a known physiologic substrate of B-Raf, according to US 2004/0127496 and WO 03/022840.
Activity of human recombinant B-Raf protein may be assessed in vitro by assay of the incorporation of radio labeled phosphate to recombinant MAP kinase (MEK), a known physiologic substrate of B-Raf, according to US 2004/0127496 and WO 03/022840. Catalytically active human recombinant B-Raf protein is obtained by purification from sf9 insect cells infected with a human B-Raf recombinant baculovirus expression vector.
Incubations were carried out at 22° C. in a Costar 3365 plate (Corning). Prior to the assay, the B-Raf and FSBA-MEK were preincubated together in assay buffer at 1.5× (20 μL of 30 nM and 1.5 μM, respectively) for 15 minutes, and the assay was initiated by the addition of 10 μL of 10 μM ATP. Following the 60-minute incubation, the assay mixtures were quenched by the addition of 100 μL of 25% TCA, the plate was mixed on a rotary shaker for 1 minute, and the product was captured on a Perkin-Elmer GF/B filter plate using a Tomtec Mach III Harvester. After sealing the bottom of the plate, […] of Bio-Safe II (Research Products International) scintillation cocktail were added to each well and the plate was top-sealed and counted in a Topcount NXT (Packard).

[2] = test system: basal ERK1/2 phosphorylation in Malme-3M cells; assay: Cellular ERK 1/2 phosphorylation assay; type: cell-based; conditions: Homo sapiens, 1 hour incubation, pERK normalized to total ERK, representative data of multiple tests
Experimental: Inhibition of basal ERK1/2 phosphorylation was determined by the following in vitro […], which comprises incubating cells with a compound of Formula I for 1 hour and quantifying the fluorescent pERK signal on fixed cells and normalizing to total ERK signal.
Materials and Methods: Malme-3M cells were obtained from ATCC and grown in RPMI-1640 supplemented with 10% fetal bovine serum. Cells were plated in 96-well plates at 24,000 cells/well and allowed to attach for 16-20 hours at 37° C., 5% CO2. The media was removed, and DMSO-diluted compounds were added in RPMI-1640 at a final concentration of 1% DMSO. The cells were incubated with the compounds for 1 hour at 37° C., 5% CO2. The cells were washed with PBS and fixed in 3.7% formaldehyde in PBS for 15 minutes. This was followed by washing in PBS/0.05% Tween20 and permeabilizing in −20° C. 100% MeOH for 15 minutes. Cells were washed in PBS/0.05% Tween20 then blocked in Odyssey blocking buffer (LI-COR Biosciences) for 1 hour. Antibodies to phosphorylated ERK (1:400, Cell Signaling #9106, monoclonal) and total ERK (1:400, Santa Cruz Biotechnology #sc-94, polyclonal) were added to the cells and incubated 16-20 hours at 4° C. After washing with PBS/0.05% Tween20, the cells were incubated with fluorescently-labeled secondary antibodies (1:1000 goat anti-rabbit IgG-IRDye800, Rockland and 1:500 goat anti-mouse IgG-Alexa Fluor 680, Molecular Probes) for an additional hour. Cells were then washed and analyzed for fluorescence at both wavelengths using the Odyssey Infrared Imaging System (LI-COR Biosciences). Phosphorylated ERK signal was normalized to total ERK signal.

[3] = 4 μM ATP, 60-minute incubation, representative data of multiple tests

T1 sequence (P15056 whole entry V600E): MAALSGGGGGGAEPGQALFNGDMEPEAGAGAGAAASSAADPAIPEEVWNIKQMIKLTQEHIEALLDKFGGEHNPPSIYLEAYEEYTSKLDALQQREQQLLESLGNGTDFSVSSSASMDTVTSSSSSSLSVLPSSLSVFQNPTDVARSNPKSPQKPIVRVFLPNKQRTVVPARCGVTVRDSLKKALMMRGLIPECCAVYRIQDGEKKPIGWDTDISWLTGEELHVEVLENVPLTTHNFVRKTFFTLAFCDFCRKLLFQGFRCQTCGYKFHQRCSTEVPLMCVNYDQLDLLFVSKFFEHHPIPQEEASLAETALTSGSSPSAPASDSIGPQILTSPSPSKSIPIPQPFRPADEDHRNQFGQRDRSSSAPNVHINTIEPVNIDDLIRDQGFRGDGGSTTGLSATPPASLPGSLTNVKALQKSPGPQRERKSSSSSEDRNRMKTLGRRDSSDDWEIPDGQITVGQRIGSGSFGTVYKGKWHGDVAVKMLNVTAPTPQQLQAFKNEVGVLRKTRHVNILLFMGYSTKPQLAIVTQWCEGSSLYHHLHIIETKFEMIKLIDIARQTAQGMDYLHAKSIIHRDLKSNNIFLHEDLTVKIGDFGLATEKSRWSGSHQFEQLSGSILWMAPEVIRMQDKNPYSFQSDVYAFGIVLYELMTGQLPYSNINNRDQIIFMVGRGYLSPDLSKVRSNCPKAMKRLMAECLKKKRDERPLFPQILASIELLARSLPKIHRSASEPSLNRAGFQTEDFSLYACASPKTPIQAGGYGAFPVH

| SMILES | IC50 [1, 3] [nM] | IC50 ([1]; bound stated) [nM] | IC50 [2] [nM] |
| --- | --- | --- | --- |
| CCCS(=O)(=O)Nc1ccc(F)c(C(=O)Nc2cnc3cc(-c4cccc(N5CCN(C)CC5)c4)nn3c2)c1F [Example 11, 2,6-difluoro-N-(2-(3-(4-methylpiperazin-1-yl)phenyl)pyrazolo[1,5-a]pyrimidin-6-yl)-3-(propylsulfonamido)benzamide] | 4.09 | < 150 | 9.55 |
| CCCS(=O)(=O)Nc1ccc(F)c(C(=O)Nc2cnc3cc(N4CCCC4)nn3c2)c1F [Example 17, 2,6-difluoro-3-(propylsulfonamido)-N-(2-(pyrrolidin-1-yl)pyrazolo[1,5-a]pyrimidin-6-yl)benzamide] | 367 | – | 664 |
| COc1cc2ncc(NC(=O)c3c(Cl)ccc(NS(=O)(=O)CCCF)c3F)cn2n1 [Example 22, 6-chloro-2-fluoro-3-(3-fluoropropyl-sulfonamido)-N-(2-methoxypyrazolo [1,5-a]pyrimidin-6-yl)benzamide] | 7.78 | < 150 | 42.8 |
| COc1cc2ncc(NC(=O)c3c(F)ccc(NS(=O)(=O)N4CCCC4)c3F)cn2n1 [Example 24, 2,6-difluoro-N-(2-methoxypyrazolo [1,5-a]pyrimidin-6-yl)-3-(pyrrolidine-1-sulfonamido) benzamide] | 260 | < 300 | 382 |
| CCCS(=O)(=O)Nc1ccc(F)c(C(=O)Nc2cnc3cc(OCCOC)nn3c2)c1Cl [Example 34, 2-chloro-6-fluoro-N-(2-(2-methoxyethoxy)pyrazolo[1,5-a]pyrimidin-6-yl)-3-(propylsulfonamido) benzamide] | 46.1 | < 150 | 126 |
| CCCS(=O)(=O)Nc1ccc(F)c(C(=O)Nc2cnc3cc(OC)nn3c2)c1F [Example 1, 2,6-difluoro-N-(2-methoxypyrazolo[1,5-a]pyrimidin-6-yl)-3-(propylsulfonamido)benzamide] | 53.2 | < 150 | 68.8 |
| CCCS(=O)(=O)Nc1ccc(F)c(C(=O)Nc2cnc3cc(-c4cccnc4)nn3c2)c1F [Example 10, 2,6-difluoro-3-(propylsulfonamido)-N-(2-(pyridin-3-yl)pyrazolo[1,5-a]pyrimidin-6-yl)benzamide] | 14.7 | < 150 | 26.7 |
